What was measured:
serotonin 4 receptor = biological target: T1, serotonin 4 receptor (Cavia porcellus, UniProt O70528); assay: Serotonin 4 receptor stimulating activity: twitch responses of electrically stimulated ileum longitudinal muscle strips; type: cell-based, guinea pig (Hartley)
T1 construct: from tissue; host or cells: ileum longitudinal muscle strips of Hartley guinea pig
Source text: Experiment 1. Serotonin 4 Receptor Stimulating Activity Compounds Tested
Twitch responses were examined in longitudinal muscle strips of guinea pig by a modification of the method described in The Journal of Pharmacology and Experimental Therapeutics, 252, 1378, 1990.
From Hartley guinea pigs, a section of ileum 25 cm in length and proximal to the ileocecal junction was removed. The longitudinal muscle strips obtained from two segments of ileum about 4 cm each in length were used for this experiment. The longitudinal muscle strips were suspended in Krebs' solution at 32° to 34° C. and bubbled with 95% O2 and 5% CO2 under a load of about 0.8 g. Twitch responses were recorded under electrical stimulation of 0.2 Hz, 1 msec pulse duration, using force displacement transducers. The longitudinal muscle strips, stimulated at supramaximal voltage, were allowed to equilibrate for about an hour. […] The test was carried out by exposing the strips to cumulative additions of agonist at least at 45-minute intervals.

[1] = test system: gastrointestinal tract motor action; assay: Activity on gastrointestinal motor in dogs (strain gauge force transducers, conscious); type: in vivo, Beagle dogs of both sexes; details: for Motility index (% of value prior to administration): gastric motor action after feeding
Method: Experiment 3. Activity on Gastrointestinal Motor in Dogs The activity was determined by a modification of the method described in Gastroenterologia Japonica, 12, 275, 1977. Beagle dogs of both sexes weighing 9 to 15 kg were anesthetized with sodium pentobarbital and strain gauge force transducers were sutured on five (5) portions, i.e., for determining antral, duodenum, jejunal, ileal and colonal motor responses. A cannula for administering a drug was mounted persistently into the jugular vein. After recovery of the surgery, motor responses at those portions on the gastrointestinal tract in both during a fasting period and after feeding were determined in the conscious dogs. The compound of the present invention was administered by dissolving the compound in 5% lactate saline aqueous solution for intravenous injection and for oral administration by suspending the compound in 5% gum arabic aqueous solution. The motor index is shown in terms of a proportion (%) of a mean value calculated for 15 minutes to a value prior to administration (0 minute). The value for 0 minute was made a mean value for 30 minutes prior to the administration. Results

gastric emptying = assay: Activity on gastric emptying in rat (glass spheroids); type: in vivo, male Wistar rats
Method: Experiment 4. Activity on Gastric Emptying in Rat The activity was investigated by a modification of the method described in British Journal of Pharmacology, 91, 263, 1987. Male Wistar rats weighing 170 to 220 g were used which were deprived of food for 24 hours. Glass spheroids of 500 mg/ml were orally administered to the animal in a dose of 1 ml 30 minutes after subcutaneous administration or 60 minutes after oral administration, of drugs. The glass spheroids remained in the stomach were recovered and their weight was measured to determine gastric emptying to control motility. The compound of the present invention was suspended in physiological saline and the resulting suspension was administered.

intestinal transit = assay: Activity on intestinal transit in mice (carbon powder); type: in vivo, male ICR mice; details: for Intestinal transit (%): moving rate calculated for control animal
Method: Experiment 5. Activity on Intestinal Transit in Mice
The activity was determined by a modification of the method described in YAKURI-TO-CHIRYO, 10, 195, 1982.
Male ICR mice weighing 20 to 30 g were used which were deprived of food for 24 hours. A suspension containing 5% carbon powder gum arabic was orally administered to the animal in a dose of 1 ml 15 minutes after subcutaneous administration or 30 minutes after oral administration, of drugs. The intestinal tract was removed 20 minutes after. The entire length of the intestinal tract and the distance of the carbon powders moved were measured, and a moving rate was calculated for control animal.

[2] = Mouse single administration (acute toxicity); type: in vivo; details: single oral administration
Source text: Toxicity of the compound represented by formula (1) which is the effective ingredient of the pharmaceutical composition of the present invention was examined in terms of toxicity by mouse single administration (acute toxicity).

[3] = Toxicity on consecutive 14-day oral administration in rat; type: in vivo, male Wistar rats
Method: Experiment 6. Toxicity on Consecutive 14-day Oral Administration in Rat
Toxicity of consecutive oral administration was investigated by oral administration of male Wistar rats of 5 weeks age, weighing 124 to 140 g and seven rats forming one group, orally received the compound of the present invention for 14 consecutive days in a daily dose of 100 mg/kg or 250 mg/kg once a day. During the course of administration, general conditions were observed and the body weight was measured. At the time when the administration was completed, hematological inspection, hematochemical inspection, urinalysis, anatomical finding, organ weight measurement and pathohistological inspection were performed.

[4] = 250 mg/kg daily, oral, 14 consecutive days

T1 sequence (O70528 whole entry): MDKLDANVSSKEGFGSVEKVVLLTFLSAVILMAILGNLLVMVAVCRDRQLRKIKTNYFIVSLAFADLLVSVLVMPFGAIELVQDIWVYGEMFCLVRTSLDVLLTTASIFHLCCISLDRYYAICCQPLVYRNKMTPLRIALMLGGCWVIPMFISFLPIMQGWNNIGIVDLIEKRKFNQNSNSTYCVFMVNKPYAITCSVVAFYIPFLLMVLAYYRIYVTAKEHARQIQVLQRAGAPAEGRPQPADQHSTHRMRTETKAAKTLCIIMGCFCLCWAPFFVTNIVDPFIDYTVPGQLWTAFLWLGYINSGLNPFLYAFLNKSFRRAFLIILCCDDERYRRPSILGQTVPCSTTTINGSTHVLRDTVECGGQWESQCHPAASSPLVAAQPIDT

CC(C)n1c(=O)c(C(=O)N[C@H]2C[C@H]3CC[C@@H](C2)N3C)cc2ccccc21 [Compound 1, endo-N-(8-methyl-8-azabicyclo[3.2.1]oct-3-yl)-1-isopropyl-2(1H)-quinolone-3-carboxamide]
EC50 (serotonin 4 receptor): 21.4 nM
serotonin 4 receptor stimulating activity, comparison with Compounds 2 to 7 (serotonin 4 receptor; in words, from Table 2): much more potent serotonin 4 receptor stimulating activity than any of the other compounds
Motility index (% of value prior to administration) ([1]; 0.3 mg/kg intravenous, 15 min, N = 3): 371.4%
Motility index (% of value prior to administration) ([1]; 0.3 mg/kg intravenous, 30 min, N = 3): 322.6%
Motility index (% of value prior to administration) ([1]; 0.3 mg/kg intravenous, 45 min, N = 3, *: P < 0.05): 282.3%
Motility index (% of value prior to administration) ([1]; 0.3 mg/kg intravenous, 60 min, N = 3, *: P < 0.05): 261.1%
Motility index (% of value prior to administration) ([1]; 0.3 mg/kg intravenous, 75 min, N = 3, **: P < 0.01): 281.9%
Motility index (% of value prior to administration) ([1]; 0.3 mg/kg intravenous, 90 min, N = 3, *: P < 0.05): 262.1%
Motility index (% of value prior to administration) ([1]; 0.3 mg/kg intravenous, 105 min, N = 3, *: P < 0.05): 242.9%
Motility index (% of value prior to administration) ([1]; 0.3 mg/kg intravenous, 120 min, N = 3): 195.2%
Motility index (% of value prior to administration) ([1]; 1 mg/kg oral, 15 min, N = 3): 116.4%
Motility index (% of value prior to administration) ([1]; 1 mg/kg oral, 30 min, N = 3): 193.5%
Motility index (% of value prior to administration) ([1]; 1 mg/kg oral, 45 min, N = 3, *: P < 0.05): 191.4%
Motility index (% of value prior to administration) ([1]; 1 mg/kg oral, 60 min, N = 3, **: P < 0.01): 206.9%
Motility index (% of value prior to administration) ([1]; 1 mg/kg oral, 75 min, N = 3, *: P < 0.05): 202.2%
Motility index (% of value prior to administration) ([1]; 1 mg/kg oral, 90 min, N = 3, *: P < 0.05): 192.5%
Motility index (% of value prior to administration) ([1]; 1 mg/kg oral, 105 min, N = 3, *: P < 0.05): 207.3%
Motility index (% of value prior to administration) ([1]; 1 mg/kg oral, 120 min, N = 3): 194.9%
Motility index (% of value prior to administration) ([1]; 1 mg/kg oral, 180 min, N = 3): 195.8%
Motility index (% of value prior to administration) ([1]; 1 mg/kg oral, 210 min, N = 3): 176.2%
Motility index (% of value prior to administration) ([1]; 1 mg/kg oral, 240 min, N = 3): 182.8%
effect on the motor action of the gastrointestinal tract ([1]; intravenous and oral, both during fasting period and after feeding): showed acceleration on the motor action of the gastrointestinal tract
effect on gastric emptying (gastric emptying; oral and subcutaneous): dose-dependently accelerated gastric emptying
Residual rate in stomach (%) (gastric emptying; p.o. 0.03 mg/kg, 5 cases): 67.3%
Residual rate in stomach (%) (gastric emptying; p.o. 0.3 mg/kg, 5 cases): 64.5%
Residual rate in stomach (%) (gastric emptying; p.o. 3.0 mg/kg, 6 cases): 42.0%
Residual rate in stomach (%) (gastric emptying; s.c. 0.1 mg/kg, 5 cases): 51.8%
Residual rate in stomach (%) (gastric emptying; s.c. 1.0 mg/kg, 5 cases): 50.3%
Residual rate in stomach (%) (gastric emptying; s.c. 10.0 mg/kg, 4 cases): 36.8%
effect on intestinal transit (intestinal transit; oral and subcutaneous): accelerated the intestinal transit
Intestinal transit (%) (intestinal transit; p.o. 1 mg/kg, 5 cases): 100.6%
Intestinal transit (%) (intestinal transit; p.o. 3 mg/kg, 5 cases): 121.4%
Intestinal transit (%) (intestinal transit; p.o. 10 mg/kg, 6 cases): 120.4%
Intestinal transit (%) (intestinal transit; s.c. 1 mg/kg, 5 cases): 116.6%
Intestinal transit (%) (intestinal transit; s.c. 3 mg/kg, 4 cases): 117.8%
Intestinal transit (%) (intestinal transit; s.c. 10 mg/kg, 6 cases, **: P < 0.01): 138.3%
minimum lethal dose [2]: more than 125 mg/kg
toxic change ([3]; 100 mg/kg daily, oral, 14 consecutive days): no toxic change was noted
body weight [3, 4]: prevention of body weight increase was noted
secondary changes in organs (liver, thymus, adrenogenital organ, adrenal, etc.) [3, 4]: secondary changes accompanied by aggravation of general conditions were observed in the liver, thymus, adrenogenital organ, adrenal, etc.
overall toxicity ([3]; 14-day oral, taking into account pharmacological activities): the toxicity is reasonably assumed to be weak
